# Patent publication US9943473B2, “Zinc lysine halide complex” (Colgate-Palmolive Company, priority 2012, dated 2018)
# Tests used:
# C. minutissimum = test: Zone of inhibition test on TSA plates; format: cell-based
# Description: (§1) A zone of inhibition test is conducted on several materials: zinc oxide and amino acid hydrohalide alone and a mixture formed from zinc oxide and amino acid hydrohalide. The method involves making a lawn of freshly prepared bacterial culture on TSA (trypticase soy agar) plates. Sterile filter paper discs are seeded with 20 μl of test sample (supernatant or mixture). Sample-coated filter paper discs are air dried and applied onto the bacterial lawn on TSA plates. Plates are incubated for 20 hours at 37° C.
# S. aureus = test: Zone of inhibition test on TSA plates; format: cell-based
# Description: as §1
# C. xerosis = test: Zone of inhibition test on TSA plates; format: cell-based
# Description: as §1
# S. epider. = test: Zone of inhibition test on TSA plates; format: cell-based
# Description: as §1
# [1] = target: Bovine Serum Albumin (BSA) (Bos taurus, UniProt P02769); test: Flocculation of ZLC in the presence of protein (turbidity, pH); conditions: ZLC about 15 mg/ml, 5 hours at 37° C.
# Sequence of Bovine Serum Albumin (BSA) (P02769 25-607): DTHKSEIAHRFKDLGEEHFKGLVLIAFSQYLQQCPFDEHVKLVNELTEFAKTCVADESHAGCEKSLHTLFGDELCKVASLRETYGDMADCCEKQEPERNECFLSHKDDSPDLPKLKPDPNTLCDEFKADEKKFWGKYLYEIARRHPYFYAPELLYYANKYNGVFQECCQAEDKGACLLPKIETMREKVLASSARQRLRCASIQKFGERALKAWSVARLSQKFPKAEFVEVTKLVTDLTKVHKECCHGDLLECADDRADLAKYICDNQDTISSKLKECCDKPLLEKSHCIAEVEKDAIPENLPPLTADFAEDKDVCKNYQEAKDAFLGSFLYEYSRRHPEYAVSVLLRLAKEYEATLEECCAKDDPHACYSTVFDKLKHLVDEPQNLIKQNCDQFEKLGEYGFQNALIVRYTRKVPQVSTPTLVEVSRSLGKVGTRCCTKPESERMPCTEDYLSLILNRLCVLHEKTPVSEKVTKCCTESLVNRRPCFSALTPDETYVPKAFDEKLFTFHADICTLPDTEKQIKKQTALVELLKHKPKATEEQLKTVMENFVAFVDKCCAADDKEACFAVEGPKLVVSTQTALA
# Description: Turbidity and pH of solutions are measured 5 hours after the mixtures were placed in a 37° C. oven, and the results are shown in Table 6.
# [2] = Hydrolysis reaction: pH and turbidity of diluted ZLC solutions before and after aging; format: physicochemical; conditions: for pH after aging / turbidity after aging: aged at 37° C. over 5 hours
# Description: A 185 mg/ml solution of ZLC is prepared and diluted several-fold and aged in a 37° C. oven over 5 hours for turbidity studies. […] Turbidity of the solutions is measured using a nephelometer, results being given in nephelometric turbidity units (NTU).
# The precipitates formed in the 8×, 16× and 32× diluted solutions are collected by centrifugation and identified as crystalline ZnO by PXRD. From the supernatant, a single crystal is grown and shown by X-ray diffraction to be Lysine Monohydrochloride Dihydrate (Lysine.HCl.2H2O).
# [3] = general description; cited from earlier work
# [4] = Table 3, sample form not stated
# [5] = sample 1: DI water, 0% BSA, pH 6.4
structure (smiles),measurement,setting,value
"N=C(N)NCCC[C@H](N)C(=O)O [Arginine 4%, arginine]",Zone of Inhibition,C. minutissimum; [4],0 mm
same,Zone of Inhibition,S. aureus; [4],0 mm
"NCCCC[C@H](N)C(=O)O [Lysine 4%, lysine]",Zone of Inhibition,C. minutissimum; [4],0 mm
same,Zone of Inhibition,S. aureus; [4],0 mm
"Cl.NCCCC[C@H](N)C(=O)O [Lysine-HCl 23.2%, lysine hydrochloride]",Zone of Inhibition,"C. xerosis; Dry Sample, As is",0 mm
same,Zone of Inhibition,"C. xerosis; Wet Sample, As is",0 mm
same,Zone of Inhibition,C. minutissimum; [4],0 mm
same,Zone of Inhibition,"S. aureus; Dry Sample, As is",0 mm
same,Zone of Inhibition,S. aureus; [4],0 mm
same,Zone of Inhibition,"S. aureus; Wet Sample, As is",0 mm
same,Zone of Inhibition,"S. epider.; Dry Sample, As is",0 mm
same,Zone of Inhibition,"S. epider.; Wet Sample, As is",0 mm
"[Cl-].[Cl-].[OH-].[OH-].[OH-].[OH-].[OH-].[OH-].[OH-].[OH-].[Zn+2].[Zn+2].[Zn+2].[Zn+2].[Zn+2] [TBZC (4%), zinc chloride hydroxide monohydrate]",Zone of Inhibition,"C. minutissimum; Table 3, Mixture",7 mm
same,Zone of Inhibition,"C. minutissimum; Table 3, Supernat",7 mm
"NCCCCC(N)C(=O)O.NCCCCC(N)C(=O)O.O.O.[Cl-].[Cl-].[Zn+2] (stereo not drawn) [ZLC, [Zn(Lysine)2Cl]^+Cl^−.2H2O]",Turbidity,[1]; [5],357 NTU
same,pH,[1]; [5],8
same,Turbidity,"[1]; sample 2: 1% BSA, pH 7.2",>1000 NTU
same,pH,"[1]; sample 2: 1% BSA, pH 7.2",8.2
same,Turbidity,"[1]; sample 3: 1% BSA, pH adjusted to 5.1",>1000 NTU
same,initial turbidity,[2]; 5.78 mg/ml,40.1 NTU
same,pH after aging,[2]; 5.78 mg/ml,8
same,turbidity after aging,[2]; 5.78 mg/ml,>1000 NTU
same,initial turbidity,[2]; 11.56 mg/ml,14.8 NTU
same,pH after aging,[2]; 11.56 mg/ml,7.8
same,turbidity after aging,[2]; 11.56 mg/ml,>1000 NTU
same,initial turbidity,[2]; 23.125 mg/ml,0.7 NTU
same,pH after aging,[2]; 23.125 mg/ml,7.7
same,turbidity after aging,[2]; 23.125 mg/ml,247.4 NTU
same,initial turbidity,[2]; 46.25 mg/ml,1.5 NTU
same,pH after aging,[2]; 46.25 mg/ml,7.4
same,turbidity after aging,[2]; 46.25 mg/ml,2.8 NTU
same,initial turbidity,[2]; 92.5 mg/ml,2.8 NTU
same,pH after aging,[2]; 92.5 mg/ml,7
same,turbidity after aging,[2]; 92.5 mg/ml,2.6 NTU
same,initial turbidity,[2]; 185 mg/ml,4.7 NTU
same,pH after aging,[2]; 185 mg/ml,6.8
same,turbidity after aging,[2]; 185 mg/ml,4.1 NTU
same,stability of the complex upon dilution,"[2]; 8×, 16× and 32× diluted solutions, precipitate identified as crystalline ZnO by PXRD","disassociates upon dilution, with consequent precipitation of zinc oxide"
"[O]=[Zn] [ZnO(4%), zinc oxide]",Zone of Inhibition,"C. xerosis; Dry Sample, Mixture",0 mm
same,Zone of Inhibition,"C. xerosis; Dry Sample, Supernatant",0 mm
same,Zone of Inhibition,"C. xerosis; Wet Sample, Mixture",0 mm
same,Zone of Inhibition,"C. xerosis; Wet Sample, Supernatant",0 mm
same,Zone of Inhibition,"S. aureus; Dry Sample, Mixture",7 mm
same,Zone of Inhibition,"S. aureus; Dry Sample, Supernatant",0 mm
same,Zone of Inhibition,"S. aureus; Wet Sample, Mixture",7 mm
same,Zone of Inhibition,"S. aureus; Wet Sample, Supernatant",0 mm
same,Zone of Inhibition,"S. epider.; Dry Sample, Mixture",10 mm
same,Zone of Inhibition,"S. epider.; Dry Sample, Supernatant",0 mm
same,Zone of Inhibition,"S. epider.; Wet Sample, Mixture",12 mm
same,Zone of Inhibition,"S. epider.; Wet Sample, Supernatant",0 mm
same,solubility in water,[3],insoluble in water
